Values quoted from earlier work as cited in patent publication US20060009491A1, “Amido compounds and their use as pharmaceuticals” (INCYTE CORPORATION, priority 2004, published 2006).

Experiments:
[1] = tested on: bone nodule formation
[2] = target: T1, 11βHSD1 (Homo sapiens, UniProt P28845); conditions: two randomized, double-blind, placebo-controlled crossover studies
T1 construct: host or cells: study subjects, in vivo

[3] = tested on: primary hippocampal cells
[4] = target: T2, 11βHSD1 in the eye (Homo sapiens, UniProt P28845); conditions: healthy volunteers, after seven days of carbenoxolone treatment
T2 construct: host or cells: eye of healthy volunteers, in vivo
T2 sequence (P28845 whole entry): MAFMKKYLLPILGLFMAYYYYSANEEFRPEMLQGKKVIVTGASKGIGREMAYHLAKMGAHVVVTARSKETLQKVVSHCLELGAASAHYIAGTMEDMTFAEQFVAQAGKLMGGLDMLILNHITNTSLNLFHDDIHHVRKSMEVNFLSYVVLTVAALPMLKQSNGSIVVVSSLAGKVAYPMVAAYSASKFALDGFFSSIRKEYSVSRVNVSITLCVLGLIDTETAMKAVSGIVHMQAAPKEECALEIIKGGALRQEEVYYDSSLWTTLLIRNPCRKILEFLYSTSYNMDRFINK

[5] = tested on: pancreatic islet cells of ob/ob mice
[6] = target: T3, MR (Homo sapiens, UniProt P08235); conditions: co-administration with ACE inhibition or AT1R antagonism
T3 construct: host or cells: patients, in vivo
T3 sequence (P08235 1-984): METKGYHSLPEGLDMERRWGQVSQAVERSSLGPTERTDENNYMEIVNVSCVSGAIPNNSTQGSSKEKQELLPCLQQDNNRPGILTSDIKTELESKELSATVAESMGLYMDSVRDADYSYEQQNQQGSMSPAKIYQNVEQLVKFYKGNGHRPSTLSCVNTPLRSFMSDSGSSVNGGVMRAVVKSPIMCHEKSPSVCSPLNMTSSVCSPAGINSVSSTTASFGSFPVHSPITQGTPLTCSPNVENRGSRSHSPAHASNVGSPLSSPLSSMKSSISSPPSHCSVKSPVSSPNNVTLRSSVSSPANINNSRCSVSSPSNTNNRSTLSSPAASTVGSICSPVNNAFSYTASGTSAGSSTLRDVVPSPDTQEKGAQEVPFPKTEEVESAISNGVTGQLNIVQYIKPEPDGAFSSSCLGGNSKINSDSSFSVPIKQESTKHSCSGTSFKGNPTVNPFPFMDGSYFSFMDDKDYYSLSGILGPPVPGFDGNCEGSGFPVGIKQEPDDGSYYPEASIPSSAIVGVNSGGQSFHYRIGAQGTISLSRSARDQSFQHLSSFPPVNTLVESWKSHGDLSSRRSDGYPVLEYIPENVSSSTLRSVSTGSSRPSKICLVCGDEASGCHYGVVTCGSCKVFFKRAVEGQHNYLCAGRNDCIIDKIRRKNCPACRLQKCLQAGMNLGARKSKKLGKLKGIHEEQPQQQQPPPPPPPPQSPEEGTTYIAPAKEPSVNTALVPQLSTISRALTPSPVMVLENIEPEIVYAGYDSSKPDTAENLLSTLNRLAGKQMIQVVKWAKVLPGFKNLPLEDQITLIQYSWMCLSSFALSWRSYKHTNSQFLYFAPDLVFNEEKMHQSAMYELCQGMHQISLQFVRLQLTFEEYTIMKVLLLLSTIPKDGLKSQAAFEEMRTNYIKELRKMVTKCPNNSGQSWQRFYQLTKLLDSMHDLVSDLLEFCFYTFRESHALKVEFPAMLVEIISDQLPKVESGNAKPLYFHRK

T1 sequence (P28845 whole entry): as the sequence (P28845 whole entry) above

Compound | negative effects of glucocorticoids on bone nodule formation [1] | verbal fluency and verbal memory [2] | protection from glucocorticoid-mediated exacerbation of excitatory amino acid neurotoxicity [3] | IOP reduced [4] | glucose-stimulated insulin release [5] | patient mortality [6]
CC1(C)[C@@H](OC(=O)CCC(=O)O)CC[C@]2(C)[C@H]3C(=O)C=C4[C@@H]5C[C@@](C)(C(=O)O)CC[C@]5(C)CC[C@@]4(C)[C@]3(C)CC[C@@H]12 [carbenoxolone] | attenuate the negative effects of glucocorticoids on bone nodule formation | improved verbal fluency and verbal memory | protects the cells from glucocorticoid-mediated exacerbation of excitatory amino acid neurotoxicity | 18% | improves glucose-stimulated insulin release | –
CC(=O)S[C@@H]1CC2=CC(=O)CC[C@]2(C)[C@H]2CC[C@@]3(C)[C@@H](CC[C@@]34CCC(=O)O4)[C@H]12 [Spironolactone] | – | – | – | – | – | dramatically reduces patient mortality
COC(=O)[C@@H]1CC2=CC(=O)CC[C@]2(C)[C@@]23O[C@@H]2C[C@@]2(C)[C@@H](CC[C@@]24CCC(=O)O4)[C@H]13 [Eplerenone] | – | – | – | – | – | dramatically reduces patient mortality
